# Results from patent US20240197670A1, “TREATMENT OF HERPES ZOSTER WITH TOPICAL TETRACAINE” (PAGARI LIFE SCIENCE CORP, priority 2022, published 2024).
# What was measured:
# [1] = test system: VZV-ORF57-Luc (Varicella Zoster Virus) in adult human skin; experiment: Antiviral evaluation against VZV in skin organ culture (SOC), bioluminescence VZV yield as fold change; type: cell-based
# Description: The goal of this study was to evaluate the effect of tetracaine against VZV in a skin organ culture (SOC) model and to determine an appropriate duration of treatment in skin to prevent VZV spread. Tetracaine, either the formulation of Example 2 or the formulation of Example 7, was tested as a topical treatment (formulated in the vehicle of Example 7) against VZV infections. Control formulations (cidofovir, CDV) were formulated in cocoa butter.
# (§1) Adult human skin from a reduction mammoplasty was cleaned and cut to a thickness of 1 mm, maintaining normal skin architecture while removing underlying adipose and some of the subdermal and connective tissue. Skin was inoculated by scarification with VZV-ORF57-Luc (cell-associated virus, from a frozen stock). VZV-ORF57-Luc expresses firefly luciferase. Infected skin was placed on NetWells, which are designed to hold skin at the air-liquid interface. This orientation keeps the epidermis in contact with the air so it remains dry, while the dermis remains moist and in contact with the medium. Infected skin was scanned by IVIS Spectrum on DPI (Day Post Inoculation) 1 and 3, and prior to treatment being initiated. All treatments were started on DPI 3, but removed after different amounts of time, including after 8, 24, 48, or 72 hours. All compounds were formulated in either the test vehicle or cocoa butter (cidofovir, CDV) and applied directly to the epidermis. To remove treatment, the compound was gently wiped off the surface of the skin, and the entire skin explant was submerged and gently swirled in phosphate-buffered saline (PBS) for a few seconds to remove any residue. The topical treatment was removed prior to imaging by gently wiping it off the epidermis.
# FIGS. 4A-4D show VZV yield as fold change, which was calculated as the total flux (photons/sec) normalized to DPI 1 for each skin explant. Imaging started on DPI 1 and was performed every day or every other day starting on DPI 3, depending on the group. In FIGS. 4A-4D, the treatment period is highlighted by a gray box. […]
# Adult human skin = experiment: Skin appearance / toxicity in skin organ culture; type: cell-based; details: for skin color change: skin treated for 48 or 72 hours, more intense in 72 hour group, only where applied
# Description: as §1
# In this study, tetracaine was placed as a small drop in the center of the skin. A color change in the skin treated for 48 or 72 hours was observed, with more intense coloring in the 72 hour group. […] Each row in FIG. 5 depicts the same piece of skin over the course of the assay.
# [2] = cited from earlier work
Structure (SMILES),"virus spread compared to cocoa butter vehicle ([1]; formulated in cocoa butter, by end of treatment phase (FIG. 4D, 72 hours), Student's t-test p<0.01)",skin color change (Adult human skin),effect against VZV-infected skin as a topical treatment (study conclusion) ([1]; skin organ culture),"effect on VZV yield vs test vehicle ([1]; topical treatments of 24-72 hours started DPI 3, one-way ANOVA)",toxicity to the skin (Adult human skin; low bioluminescent signals in treated explants even after 3 days),"solubility in alcohol, ether, benzene and chloroform ([2]; alcohol, ether, benzene, chloroform)",solubility in water ([2]; water)
"Nc1ccn(C[C@@H](CO)OCP(=O)(O)O)c(=O)n1 [CDV, cidofovir]",significantly lower virus spread,No color change,–,–,–,–,–
CCCCNc1ccc(C(=O)OCCN(C)C)cc1 [Tetracaine],–,color change,highly effective,highly effective,not toxic to the skin,soluble,very slightly soluble
